The text below walks through data of patent US11707467B2, “(17-ß)-3-oxoandrost-4-en-17YL tridecanoate compositions and methods of their preparation and use” (Lipocine Inc., priority 2014, dated 2023).

Molecules are shown by their SMILES.

Series [1] concerns male and female mice. Particulars: cited from earlier work.
Series [2] deals with developing oocytes in female mice. Particulars: cited from earlier work.
Series [3] is described as follows: Pharmacokinetic study: % responders by serum testosterone Cavg and Cmax. The class given is in vivo, human. On the procedure: Some of the dosage forms of compositions described herein comprising or prepared from substantially pure (17-β)-3-Oxoandrost-4-en-17-yl tridecanoate were administered to human subjects as a single dose of the esters to subjects. Serial blood samples were drawn at predetermined time (e.g., t=0, 12, 24, etc.) and analyzed for testosterone concentration using a validated HPLC-MS/MS analytical method. The Cmax, Cavg t1-t2, Tmax and AUCt1-t2 are calculated for testosterone in the serum of the subjects. Pharmacokinetic and statistical analyses are performed on the data obtained from the subjects. The pharmacokinetic parameters are defined as follows: • AUCt1-t2: The area under the serum concentration versus time curve, from time t1 (in hours) to time t2 (in hours) measurable concentration of the administered drug, as calculated by the linear trapezoidal method. […] This represents the average serum testosterone level over a period starting from time 0 (zero) hours to […] post-administration of dose. It should also be noted that Cavg t0-t24 is also referred to as simply “Cavg” in this invention. • Cavg t0-t12: The average serum concentration of testosterone obtained by dividing the […] value by 12. This represents the average serum testosterone level over a period starting from time 0 (zero) hours to […] post-administration of dose. • Cavg t12-t24: The average serum concentration of testosterone obtained by dividing the AUCt12-t24 value by 12. This represents the average serum testosterone level over the second half of the 24-hours post-administration of dose period; i.e., from a period starting from time 12 hours to time 24 hours post-administration of dose.

The mark [4] stands for this setting: starting 100 (±50) mg T equivalent QD or BID, same formulation.
The mark [5] stands for this setting: starting 300 (±50) mg T equivalent QD, 12-20% API, 55-70% lipophilic additive, 12-20% hydrophilic additive.
Where [6] appears, read: starting 350 (±100) mg T equivalent BID, same formulation.
[7] abbreviates: starting 1000 (±200) mg T equivalent QD or BID, same formulation.

Consider `C[C@]12CCC(=O)C=C1CC[C@@H]1[C@@H]2CC[C@]2(C)C(=O)CC[C@@H]12` [androstenedione], for which, in series [1], the Carcinogenicity result is on record as “carcinogenic”. The “Effect on developing oocytes” value in series [2] was “induces abnormalities in morphology and function of developing oocytes”.

In the case of `CCCCCCCCCCCCC(=O)O[C@H]1CC[C@H]2[C@@H]3CCC4=CC(=O)CC[C@]4(C)[C@H]3CC[C@]12C` [(17-β)-3-Oxoandrost-4-en-17-yl tridecanoate], in series [3] (setting [4]), the “% Responders with Cave t0-t24 (ng/dL) 300-1140” value (“% Responders with Cave t0-t24” below) was 50-65%, the “% Responders with Cmax (ng/dL) 1800-2500” value is recorded as 0-5%, the “% Responders with Cmax (ng/dL) >2500” value is 0-1% and the “% Responders with Cmax (ng/dL) ≤1500” value is 100%. Also, in series [3] (setting [5]), the “% Responders with Cave t0-t24” value is on record as 100%, the “% Responders with Cmax (ng/dL) 1800-2500” value is given as 0-5%, the “% Responders with Cmax (ng/dL) >2500” value is given as 0-1% and the “% Responders with Cmax (ng/dL) ≤1500” value was 100%. In series [3] (setting [6]), the “% Responders with Cave t0-t24” value is 100%, the “% Responders with Cmax (ng/dL) 1800-2500” value is 0-5%, the “% Responders with Cmax (ng/dL) >2500” value is 0-1% and the “% Responders with Cmax (ng/dL) ≤1500” value came out at 100%. In series [3] (setting [7]), the “% Responders with Cave t0-t24” value was determined as 100%, the “% Responders with Cmax (ng/dL) 1800-2500” value is recorded as 20-30%, the “% Responders with Cmax (ng/dL) >2500” value is given as 60-80% and the “% Responders with Cmax (ng/dL) ≤1500” value is given as 0%.
